Data taken from patent publication US20230085307A1, “PYRIDAZINONE COMPOUND AND HERBICIDE” (NISSAN CHEMICAL CORPORATION, priority 2019, published 2023).

How the values were obtained:
[1] = tested on: windgrass; experiment: Test Example 5: herbicidal effect by foliage application, plastic box (Table 20, symbol L); format: in vivo, windgrass (Apera spica-venti); conditions: foliage application, 320 g/ha, evaluated three weeks after application
In short: (§1)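 Foliar spray test: emulsion formulation diluted in water to a set application rate, sprayed onto 14-day-old plants raised in diluvial soil at 25° C to 30° C under glass. Both herbicidal effect and crop effect rated visually three weeks later.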

[2] = tested on: velvetleaf; experiment: Test Example 5: herbicidal effect by foliage application, plastic box (Table 20, symbol M); format: in vivo, velvetleaf (Abutilon theophrasti); conditions: foliage application, 320 g/ha, evaluated three weeks after application
In short: as §1

[3] = tested on: barnyard grass; experiment: Test Example 4: herbicidal effect by soil treatment (Table 19, symbol H); format: in vivo, barnyard grass (Echinochloa crus-galli); conditions: amount of applied herbicide 320 g/ha
In short: (§2)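 Herbicidal effect was rated 3 weeks after treatment, using the scoring criteria of an earlier test. The compound, formulated as an emulsion and diluted in water to a set herbicide amount, had been sprayed uniformly on soil over freshly sown seeds. Growth took place in a greenhouse at 25° C. to 30° C.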

[4] = tested on: lambsquarters; experiment: Test Example 4: herbicidal effect by soil treatment (Table 19, symbol O); format: in vivo, lambsquarters (Chenopodium album); conditions: amount of applied herbicide 320 g/ha
In short: as §2

[5] = tested on: lambsquarters; experiment: Test Example 5: herbicidal effect by foliage application, plastic box (Table 20, symbol O); format: in vivo, lambsquarters (Chenopodium album); conditions: foliage application, 320 g/ha, evaluated three weeks after application
In short: as §1

[6] = tested on: windgrass; experiment: Test Example 4: herbicidal effect by soil treatment (Table 19, symbol L); format: in vivo, windgrass (Apera spica-venti); conditions: amount of applied herbicide 320 g/ha
In short: as §2

[7] = tested on: redroot pigweed; experiment: Test Example 5: herbicidal effect by foliage application, plastic box (Table 20, symbol N); format: in vivo, redroot pigweed (Amaranthus retroflexus); conditions: foliage application, 320 g/ha, evaluated three weeks after application
In short: as §1

[8] = tested on: rice flat sedge; experiment: Test Example 3: herbicidal effect by foliage application, Wagner pot (Table 18, symbol E); format: in vivo, rice flat sedge (Cyperus iria); conditions: amount of applied herbicide 320 g/ha
In short: (§3)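 Plants were sown in alluvial soil held under 0.1–0.5 cm standing water and grown 14 days in a greenhouse at 25–30 °C. An emulsifiable formulation, water-diluted to the set dose, was then sprayed onto the foliage, and effects were scored three weeks later using previously defined criteria.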

[9] = tested on: persian speedwell; experiment: Test Example 4: herbicidal effect by soil treatment (Table 19, symbol R); format: in vivo, Persian speedwell (Veronica persica); conditions: amount of applied herbicide 320 g/ha
In short: as §2

[10] = tested on: green foxtail; experiment: Test Example 5: herbicidal effect by foliage application, plastic box (Table 20, symbol G); format: in vivo, green foxtail (Setaria viridis); conditions: foliage application, 320 g/ha, evaluated three weeks after application
In short: as §1

[11] = tested on: persian speedwell; experiment: Test Example 5: herbicidal effect by foliage application, plastic box (Table 20, symbol R); format: in vivo, Persian speedwell (Veronica persica); conditions: foliage application, 320 g/ha, evaluated three weeks after application
In short: as §1

[12] = tested on: false cleavers; experiment: Test Example 4: herbicidal effect by soil treatment (Table 19, symbol Q); format: in vivo, false cleavers (Galium spurium); conditions: amount of applied herbicide 320 g/ha
In short: as §2

[13] = tested on: wild oat; experiment: Test Example 5: herbicidal effect by foliage application, plastic box (Table 20, symbol I); format: in vivo, wild oat (Avena fatua); conditions: foliage application, 320 g/ha, evaluated three weeks after application
In short: as §1

[14] = tested on: velvetleaf; experiment: Test Example 4: herbicidal effect by soil treatment (Table 19, symbol M); format: in vivo, velvetleaf (Abutilon theophrasti); conditions: amount of applied herbicide 320 g/ha
In short: as §2

[15] = tested on: false cleavers; experiment: Test Example 5: herbicidal effect by foliage application, plastic box (Table 20, symbol Q); format: in vivo, false cleavers (Galium spurium); conditions: foliage application, 320 g/ha, evaluated three weeks after application
In short: as §1

[16] = tested on: southern crabgrass; experiment: Test Example 4: herbicidal effect by soil treatment (Table 19, symbol F); format: in vivo, southern crabgrass (Digitaria ciliaris); conditions: amount of applied herbicide 320 g/ha
In short: as §2

[17] = tested on: blackgrass; experiment: Test Example 5: herbicidal effect by foliage application, plastic box (Table 20, symbol J); format: in vivo, blackgrass (Alopecurus myosuroides); conditions: foliage application, 320 g/ha, evaluated three weeks after application
In short: as §1

[18] = tested on: oval-leafed pondweed; experiment: Test Example 1: herbicidal activity, application before weed generation under submerged conditions (Table 16, symbol C); format: in vivo, oval-leafed pondweed (Monochoria vaginalis); conditions: 320 g/ha applied herbicide
In short: (§4)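 Submerged Wagner pots (alluvial soil, 4 cm water) sown with weed seeds and planted with 2.5-leaf rice seedlings; emulsifiable concentrate diluted in water applied to water surface on sowing day. Held in greenhouse at 25-30 °C; injury scored 0-5 by herbicidal rate after three weeks.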

[19] = tested on: green foxtail; experiment: Test Example 4: herbicidal effect by soil treatment (Table 19, symbol G); format: in vivo, green foxtail (Setaria viridis); conditions: amount of applied herbicide 320 g/ha
In short: as §2

[20] = tested on: chickweed; experiment: Test Example 5: herbicidal effect by foliage application, plastic box (Table 20, symbol P); format: in vivo, common chickweed (Stellaria media); conditions: foliage application, 320 g/ha, evaluated three weeks after application
In short: as §1

[21] = tested on: Italian ryegrass; experiment: Test Example 4: herbicidal effect by soil treatment (Table 19, symbol K); format: in vivo, Italian ryegrass (Lolium multiflorum); conditions: amount of applied herbicide 320 g/ha
In short: as §2

[22] = tested on: chickweed; experiment: Test Example 4: herbicidal effect by soil treatment (Table 19, symbol P); format: in vivo, common chickweed (Stellaria media); conditions: amount of applied herbicide 320 g/ha
In short: as §2

[23] = tested on: barnyard grass; experiment: Test Example 3: herbicidal effect by foliage application, Wagner pot (Table 18, symbol H); format: in vivo, barnyard grass (Echinochloa crus-galli); conditions: amount of applied herbicide 320 g/ha
In short: as §3

[24] = tested on: Japanese bulrush; experiment: Test Example 1: herbicidal activity, application before weed generation under submerged conditions (Table 16, symbol B); format: in vivo, Japanese bulrush (Schoenoplectus juncoides); conditions: 320 g/ha applied herbicide
In short: as §4

[25] = tested on: blackgrass; experiment: Test Example 4: herbicidal effect by soil treatment (Table 19, symbol J); format: in vivo, blackgrass (Alopecurus myosuroides); conditions: amount of applied herbicide 320 g/ha
In short: as §2

[26] = tested on: redroot pigweed; experiment: Test Example 4: herbicidal effect by soil treatment (Table 19, symbol N); format: in vivo, redroot pigweed (Amaranthus retroflexus); conditions: amount of applied herbicide 320 g/ha
In short: as §2

[27] = tested on: late watergrass; experiment: Test Example 1: herbicidal activity, application before weed generation under submerged conditions (Table 16, symbol A); format: in vivo, late watergrass (Echinochloa oryzicola); conditions: 320 g/ha applied herbicide
In short: as §4

[28] = tested on: barnyard grass; experiment: Test Example 5: herbicidal effect by foliage application, plastic box (Table 20, symbol H); format: in vivo, barnyard grass (Echinochloa crus-galli); conditions: foliage application, 320 g/ha, evaluated three weeks after application
In short: as §1

[29] = tested on: Chinese sprangletop; experiment: Test Example 3: herbicidal effect by foliage application, Wagner pot (Table 18, symbol D); format: in vivo, chinese sprangletop (Leptochloa chinensis); conditions: amount of applied herbicide 320 g/ha
In short: as §3

[30] = tested on: southern crabgrass; experiment: Test Example 5: herbicidal effect by foliage application, plastic box (Table 20, symbol F); format: in vivo, southern crabgrass (Digitaria ciliaris); conditions: foliage application, 320 g/ha, evaluated three weeks after application
In short: as §1

[31] = tested on: Italian ryegrass; experiment: Test Example 5: herbicidal effect by foliage application, plastic box (Table 20, symbol K); format: in vivo, Italian ryegrass (Lolium multiflorum); conditions: foliage application, 320 g/ha, evaluated three weeks after application
In short: as §1

[32] = tested on: wild oat; experiment: Test Example 4: herbicidal effect by soil treatment (Table 19, symbol I); format: in vivo, wild oat (Avena fatua); conditions: amount of applied herbicide 320 g/ha
In short: as §2

With `COc1ccc2sc(-c3ccccc3)c(-c3c(O)c(C)nn(C)c3=O)c2c1` [2-164] the “herbicidal effect on L: windgrass (criteria 0-5)” value [1] was 5 (Herbicidal rate of 90% or more (almost completely withered)), the “herbicidal effect on M: velvetleaf (criteria 0-5)” value [2] was 3 (Herbicidal rate of 40% or more and less than 70%) and the “H: barnyard grass, herbicidal effect rating” value [3] was 2 (Herbicidal rate of 20% or more and less than 40%). For the same compound, the “O: lambsquarters, herbicidal effect rating” value [4] was 4 (Herbicidal rate of 70% or more and less than 90%), the “herbicidal effect on O: lambsquarters (criteria 0-5)” value [5] was 3 (Herbicidal rate of 40% or more and less than 70%) and the “L: windgrass, herbicidal effect rating” value [6] was 3 (Herbicidal rate of 40% or more and less than 70%). The “herbicidal effect on N: redroot pigweed (criteria 0-5)” value [7] was 5 (Herbicidal rate of 90% or more (almost completely withered)), the “herbicidal effect on E: rice flat sedge” value [8] was 4 (Herbicidal rate of 70% or more and less than 90%) and the “R: persian speedwell, herbicidal effect rating” value [9] was 4 (Herbicidal rate of 70% or more and less than 90%). The “herbicidal effect on G: green foxtail (criteria 0-5)” value [10] was 5 (Herbicidal rate of 90% or more (almost completely withered)), the “herbicidal effect on R: persian speedwell (criteria 0-5)” value [11] was 5 (Herbicidal rate of 90% or more (almost completely withered)) and the “Q: false cleavers, herbicidal effect rating” value [12] was 2 (Herbicidal rate of 20% or more and less than 40%). The “herbicidal effect on I: wild oat (criteria 0-5)” value [13] was 4 (Herbicidal rate of 70% or more and less than 90%), the “M: velvetleaf, herbicidal effect rating” value [14] was 0 (Herbicidal rate of 5% or less (almost no effect)) and the “herbicidal effect on Q: false cleavers (criteria 0-5)” value [15] was 5 (Herbicidal rate of 90% or more (almost completely withered)). For the same compound, the “F: southern crabgrass, herbicidal effect rating” value [16] was 4 (Herbicidal rate of 70% or more and less than 90%), the “herbicidal effect on J: blackgrass (criteria 0-5)” value [17] was 3 (Herbicidal rate of 40% or more and less than 70%) and the “Herbicidal effect on C: oval-leafed pondweed (grade 0-5)” value [18] was 0 (Herbicidal rate of 5% or less (almost no effect)). For the same compound, the “G: green foxtail, herbicidal effect rating” value [19] was 5 (Herbicidal rate of 90% or more (almost completely withered)), the “herbicidal effect on P: chickweed (criteria 0-5)” value [20] was 5 (Herbicidal rate of 90% or more (almost completely withered)) and the “K: Italian ryegrass, herbicidal effect rating” value [21] was 2 (Herbicidal rate of 20% or more and less than 40%). The “P: chickweed, herbicidal effect rating” value [22] was 5 (Herbicidal rate of 90% or more (almost completely withered)), the “herbicidal effect on H: barnyard grass” value [23] was 2 (Herbicidal rate of 20% or more and less than 40%) and the “Herbicidal effect on B: Japanese bulrush (grade 0-5)” value [24] was 0 (Herbicidal rate of 5% or less (almost no effect)). For the same compound, the “J: blackgrass, herbicidal effect rating” value [25] was 0 (Herbicidal rate of 5% or less (almost no effect)), the “N: redroot pigweed, herbicidal effect rating” value [26] was 4 (Herbicidal rate of 70% or more and less than 90%) and the “Herbicidal effect on A: late watergrass (grade 0-5)” value [27] was 3 (Herbicidal rate of 40% or more and less than 70%). The “herbicidal effect on H: barnyard grass (criteria 0-5)” value [28] was 1 (Herbicidal rate of 5% or more and less than 20%), the “herbicidal effect on D: Chinese sprangletop” value [29] was 3 (Herbicidal rate of 40% or more and less than 70%) and the “herbicidal effect on F: southern crabgrass (criteria 0-5)” value [30] was 4 (Herbicidal rate of 70% or more and less than 90%). The “herbicidal effect on K: Italian ryegrass (criteria 0-5)” value [31] was 4 (Herbicidal rate of 70% or more and less than 90%) and the “I: wild oat, herbicidal effect rating” value [32] was 1 (Herbicidal rate of 5% or more and less than 20%).
